Patent US20230111310A1, “CARBOXYLIC ACID DERIVATIVE-SUBSTITUTED IMINO ARYL COMPOUND, PREPARATION METHOD THEREFOR, HERBICIDAL COMPOSITION AND USE THEREOF” (Qingdao Kingagroot Chemical Compound Co., Ltd., priority 2020, published 2023)

These compounds were tested on Abutilon theophrasti (assay: Weeding effect in post-emergence stage). Details: Dose 15 g/ha; fresh weight control rate level.
Format: in vivo
Summary of the method: (§1)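 Post-emergence spray tower; 2-3 leaf plants (2 wk after sowing, soil pots, greenhouse). Formulation: acetone, Tween 80, methyl oleate EC 1.5 liter/ha as synergist, water. Rates 500–7.5 g/ha. Growth control rate read at 3 wk; n=3, averaged.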

| SMILES | Weeding effect in post-emergence stage, Abutilon theophrasti (level) |
| --- | --- |
| COC(=O)C(CC(C)C)O/N=C/c1cc(-n2c(=O)cc(C(F)(F)F)n(C)c2=O)c(F)cc1Cl (racemic) [Compound 455] | 5 (Level 5: growth control rate is above 85%) |
| COC(=O)C(CC1CC1)O/N=C/c1cc(-n2c(=O)cc(C(F)(F)F)n(C)c2=O)c(F)cc1Cl (racemic) [Compound 462] | 5 (Level 5: growth control rate is above 85%) |
| COC(=O)C(CF)O/N=C/c1cc(-n2c(=O)cc(C(F)(F)F)n(C)c2=O)c(F)cc1Cl (racemic) [Compound 463] | 5 (Level 5: growth control rate is above 85%) |
| COC(=O)C(Cc1ccccc1)O/N=C/c1cc(-n2c(=O)cc(C(F)(F)F)n(C)c2=O)c(F)cc1Cl (racemic) [Compound 469] | 5 (Level 5: growth control rate is above 85%) |

Same assay, conditions: Dose 15 g/ha; level of fresh weight growth control rate

| SMILES | Weeding effect in post-emergence stage, Abutilon theophrasti |
| --- | --- |
| CCOC(=O)[C@@H](C)O/N=C/c1cc(-n2c(=O)n(C)c(=S)n(C)c2=O)c(F)cc1Cl [3(R)] | 5 (Level 5: growth control rate is above 85%) |
| CCCOC(=O)[C@@H](C)O/N=C/c1cc(-n2c(=O)n(C)c(=S)n(C)c2=O)c(F)cc1Cl [4(R)] | 5 (Level 5: growth control rate is above 85%) |
| CC(C)OC(=O)[C@@H](C)O/N=C/c1cc(-n2c(=O)n(C)c(=S)n(C)c2=O)c(F)cc1Cl [5(R)] | 5 (Level 5: growth control rate is above 85%) |

Each compound was assayed on Alopecurus japonicus (assay: Weeding effect in post-emergence stage). Details: Dose 15 g/ha; fresh weight control rate level.
Format: in vivo
Summary of the method: as §1

| SMILES | Weeding effect in post-emergence stage, Alopecurus japonicus (level) |
| --- | --- |
| COC(=O)C(CC(C)C)O/N=C/c1cc(-n2c(=O)cc(C(F)(F)F)n(C)c2=O)c(F)cc1Cl (racemic) [Compound 455] | 5 (Level 5: growth control rate is above 85%) |
| COC(=O)C(CC1CC1)O/N=C/c1cc(-n2c(=O)cc(C(F)(F)F)n(C)c2=O)c(F)cc1Cl (racemic) [Compound 462] | 5 (Level 5: growth control rate is above 85%) |
| COC(=O)C(CF)O/N=C/c1cc(-n2c(=O)cc(C(F)(F)F)n(C)c2=O)c(F)cc1Cl (racemic) [Compound 463] | 5 (Level 5: growth control rate is above 85%) |
| COC(=O)C(Cc1ccccc1)O/N=C/c1cc(-n2c(=O)cc(C(F)(F)F)n(C)c2=O)c(F)cc1Cl (racemic) [Compound 469] | 5 (Level 5: growth control rate is above 85%) |

Same assay, conditions: Dose 15 g/ha; level of fresh weight growth control rate

| SMILES | Weeding effect in post-emergence stage, Alopecurus japonicus |
| --- | --- |
| CCOC(=O)[C@@H](C)O/N=C/c1cc(-n2c(=O)n(C)c(=S)n(C)c2=O)c(F)cc1Cl [3(R)] | 4 (Level 4: growth control rate is greater than or equal to 60% and less than 85%) |
| CCCOC(=O)[C@@H](C)O/N=C/c1cc(-n2c(=O)n(C)c(=S)n(C)c2=O)c(F)cc1Cl [4(R)] | 5 (Level 5: growth control rate is above 85%) |
| CC(C)OC(=O)[C@@H](C)O/N=C/c1cc(-n2c(=O)n(C)c(=S)n(C)c2=O)c(F)cc1Cl [5(R)] | 5 (Level 5: growth control rate is above 85%) |

What follows are compounds tested on Digitaria sanguinalis (assay: Weeding effect in post-emergence stage). Details: Dose 15 g/ha; fresh weight control rate level.
Format: in vivo
Summary of the method: as §1

| SMILES | Weeding effect in post-emergence stage, Digitaria sanguinalis (level) |
| --- | --- |
| COC(=O)C(CC(C)C)O/N=C/c1cc(-n2c(=O)cc(C(F)(F)F)n(C)c2=O)c(F)cc1Cl (racemic) [Compound 455] | 5 (Level 5: growth control rate is above 85%) |
| COC(=O)C(CC1CC1)O/N=C/c1cc(-n2c(=O)cc(C(F)(F)F)n(C)c2=O)c(F)cc1Cl (racemic) [Compound 462] | 5 (Level 5: growth control rate is above 85%) |
| COC(=O)C(CF)O/N=C/c1cc(-n2c(=O)cc(C(F)(F)F)n(C)c2=O)c(F)cc1Cl (racemic) [Compound 463] | 5 (Level 5: growth control rate is above 85%) |
| COC(=O)C(Cc1ccccc1)O/N=C/c1cc(-n2c(=O)cc(C(F)(F)F)n(C)c2=O)c(F)cc1Cl (racemic) [Compound 469] | 5 (Level 5: growth control rate is above 85%) |

Same assay, conditions: Dose 15 g/ha; level of fresh weight growth control rate

| SMILES | Weeding effect in post-emergence stage, Digitaria sanguinalis |
| --- | --- |
| CCOC(=O)[C@@H](C)O/N=C/c1cc(-n2c(=O)n(C)c(=S)n(C)c2=O)c(F)cc1Cl [3(R)] | 5 (Level 5: growth control rate is above 85%) |
| CCCOC(=O)[C@@H](C)O/N=C/c1cc(-n2c(=O)n(C)c(=S)n(C)c2=O)c(F)cc1Cl [4(R)] | 5 (Level 5: growth control rate is above 85%) |
| CC(C)OC(=O)[C@@H](C)O/N=C/c1cc(-n2c(=O)n(C)c(=S)n(C)c2=O)c(F)cc1Cl [5(R)] | 5 (Level 5: growth control rate is above 85%) |

Each compound was assayed on Eleusine indica (assay: Weeding effect in post-emergence stage). Details: Dose 15 g/ha; fresh weight control rate level.
Format: in vivo
Summary of the method: as §1

| SMILES | Weeding effect in post-emergence stage, Eleusine indica (level) |
| --- | --- |
| COC(=O)C(CC(C)C)O/N=C/c1cc(-n2c(=O)cc(C(F)(F)F)n(C)c2=O)c(F)cc1Cl (racemic) [Compound 455] | 5 (Level 5: growth control rate is above 85%) |
| COC(=O)C(CC1CC1)O/N=C/c1cc(-n2c(=O)cc(C(F)(F)F)n(C)c2=O)c(F)cc1Cl (racemic) [Compound 462] | 5 (Level 5: growth control rate is above 85%) |
| COC(=O)C(CF)O/N=C/c1cc(-n2c(=O)cc(C(F)(F)F)n(C)c2=O)c(F)cc1Cl (racemic) [Compound 463] | 5 (Level 5: growth control rate is above 85%) |
| COC(=O)C(Cc1ccccc1)O/N=C/c1cc(-n2c(=O)cc(C(F)(F)F)n(C)c2=O)c(F)cc1Cl (racemic) [Compound 469] | 5 (Level 5: growth control rate is above 85%) |

Same assay, conditions: Dose 15 g/ha; level of fresh weight growth control rate

| SMILES | Weeding effect in post-emergence stage, Eleusine indica |
| --- | --- |
| CCOC(=O)[C@@H](C)O/N=C/c1cc(-n2c(=O)n(C)c(=S)n(C)c2=O)c(F)cc1Cl [3(R)] | 5 (Level 5: growth control rate is above 85%) |
| CCCOC(=O)[C@@H](C)O/N=C/c1cc(-n2c(=O)n(C)c(=S)n(C)c2=O)c(F)cc1Cl [4(R)] | 5 (Level 5: growth control rate is above 85%) |
| CC(C)OC(=O)[C@@H](C)O/N=C/c1cc(-n2c(=O)n(C)c(=S)n(C)c2=O)c(F)cc1Cl [5(R)] | 5 (Level 5: growth control rate is above 85%) |

The compounds below were run on Setaria viridis (assay: Weeding effect in post-emergence stage). Details: Dose 15 g/ha; fresh weight control rate level.
Format: in vivo
Summary of the method: as §1

| SMILES | Weeding effect in post-emergence stage, Setaria viridis (level) |
| --- | --- |
| COC(=O)C(CC(C)C)O/N=C/c1cc(-n2c(=O)cc(C(F)(F)F)n(C)c2=O)c(F)cc1Cl (racemic) [Compound 455] | 5 (Level 5: growth control rate is above 85%) |
| COC(=O)C(CC1CC1)O/N=C/c1cc(-n2c(=O)cc(C(F)(F)F)n(C)c2=O)c(F)cc1Cl (racemic) [Compound 462] | 5 (Level 5: growth control rate is above 85%) |
| COC(=O)C(CF)O/N=C/c1cc(-n2c(=O)cc(C(F)(F)F)n(C)c2=O)c(F)cc1Cl (racemic) [Compound 463] | 5 (Level 5: growth control rate is above 85%) |
| COC(=O)C(Cc1ccccc1)O/N=C/c1cc(-n2c(=O)cc(C(F)(F)F)n(C)c2=O)c(F)cc1Cl (racemic) [Compound 469] | 5 (Level 5: growth control rate is above 85%) |

Same assay, conditions: Dose 15 g/ha; level of fresh weight growth control rate

| SMILES | Weeding effect in post-emergence stage, Setaria viridis |
| --- | --- |
| CCOC(=O)[C@@H](C)O/N=C/c1cc(-n2c(=O)n(C)c(=S)n(C)c2=O)c(F)cc1Cl [3(R)] | 5 (Level 5: growth control rate is above 85%) |
| CCCOC(=O)[C@@H](C)O/N=C/c1cc(-n2c(=O)n(C)c(=S)n(C)c2=O)c(F)cc1Cl [4(R)] | 5 (Level 5: growth control rate is above 85%) |
| CC(C)OC(=O)[C@@H](C)O/N=C/c1cc(-n2c(=O)n(C)c(=S)n(C)c2=O)c(F)cc1Cl [5(R)] | 5 (Level 5: growth control rate is above 85%) |

These compounds were tested on Echinochloa crusgalli (assay: Weeding effect in post-emergence stage). Details: Dose 15 g/ha; fresh weight control rate level.
Format: in vivo
Summary of the method: as §1

| SMILES | Weeding effect in post-emergence stage, Echinochloa crusgalli (level) |
| --- | --- |
| COC(=O)C(CC(C)C)O/N=C/c1cc(-n2c(=O)cc(C(F)(F)F)n(C)c2=O)c(F)cc1Cl (racemic) [Compound 455] | 5 (Level 5: growth control rate is above 85%) |
| COC(=O)C(CC1CC1)O/N=C/c1cc(-n2c(=O)cc(C(F)(F)F)n(C)c2=O)c(F)cc1Cl (racemic) [Compound 462] | 5 (Level 5: growth control rate is above 85%) |
| COC(=O)C(CF)O/N=C/c1cc(-n2c(=O)cc(C(F)(F)F)n(C)c2=O)c(F)cc1Cl (racemic) [Compound 463] | 5 (Level 5: growth control rate is above 85%) |
| COC(=O)C(Cc1ccccc1)O/N=C/c1cc(-n2c(=O)cc(C(F)(F)F)n(C)c2=O)c(F)cc1Cl (racemic) [Compound 469] | 5 (Level 5: growth control rate is above 85%) |

Same assay, conditions: Dose 15 g/ha; level of fresh weight growth control rate

| SMILES | Weeding effect in post-emergence stage, Echinochloa crusgalli |
| --- | --- |
| CCOC(=O)[C@@H](C)O/N=C/c1cc(-n2c(=O)n(C)c(=S)n(C)c2=O)c(F)cc1Cl [3(R)] | 5 (Level 5: growth control rate is above 85%) |
| CCCOC(=O)[C@@H](C)O/N=C/c1cc(-n2c(=O)n(C)c(=S)n(C)c2=O)c(F)cc1Cl [4(R)] | 5 (Level 5: growth control rate is above 85%) |
| CC(C)OC(=O)[C@@H](C)O/N=C/c1cc(-n2c(=O)n(C)c(=S)n(C)c2=O)c(F)cc1Cl [5(R)] | 5 (Level 5: growth control rate is above 85%) |
